Patent US20200377958A1, “BIOMARKERS AND METHODS FOR TREATMENT WITH NAE INHIBITORS” (Millennium Pharmaceuticals, Inc., priority 2017, published 2020)
Like-named read-outs stand apart in the source and are kept apart here.

Tests used:
[1] = Phase 1b clinical study (NCT01814826): plasma PK of PEV in combination with AZA; format: in vivo, human; settings: for Cmax / half-life / Tmax: human; for Cmax / half-life / Tmax / AUC24 / AUC48: plasma; for Cmax / AUC24 / AUC48: geometric mean; for half-life: mean; for Tmax: median
Procedure: Serial blood samples for the determination of PEV concentrations were obtained during the first cycle of treatment, at pre-specified time points before and up to 48 hours after the start of the infusion on days 1 and 5.

[2] = system: patients with relapsed/refractory AML and MDS; settings: single-agent PEV, cited from earlier work
AML cells = settings: cited from earlier work; for combination effect on viability: Combination Index and Blending Synergy Analysis
[3] = single-agent PEV, cited from earlier work
[4] = system: older unfit patients with increased marrow blasts (>30%); settings: cited from earlier work
patients with AML = patients with AML on the Austrian AZA registry; cited from earlier work
[5] = intravenous, dose escalation, 20 mg/m^2 cohort (N = 6), cycle 1, day 1
[6] = intravenous, dose escalation, 20 mg/m^2 cohort (N = 6), cycle 1, day 5
[7] = intravenous, dose escalation, 30 mg/m^2 cohort (N = 3), cycle 1, day 1
[8] = iv, MTD expansion, IV AZA cohort (N = 26), cycle 1, day 1
[9] = iv, MTD expansion, IV AZA cohort (N = 26), cycle 1, day 5
[10] = sc, MTD expansion, SC AZA cohort (N = 28), cycle 1, day 1
[11] = sc, MTD expansion, SC AZA cohort (N = 28), cycle 1, day 5
[12] = dose escalation, 20 mg/m^2 cohort (N = 6), cycle 1, day 1
[13] = dose escalation, 20 mg/m^2 cohort (N = 6), cycle 1, day 5
[14] = dose escalation, 30 mg/m^2 cohort (N = 3), cycle 1, day 1
[15] = AZA-AML-001, randomized AZA or CCR

For `NS(=O)(=O)OC[C@@H]1C[C@@H](n2ccc3c(N[C@H]4CCc5ccccc54)ncnc32)C[C@@H]1O` [PEV, ((1S,2S,4R)-4-{4-[(1S)-2,3-dihydro-1H-inden-1-ylamino]-7H-pyrrolo[2,3-d]pyrimidin-7-yl}-2-hydroxycyclopentyl)methyl sulfamate], the “observed accumulation ratio Rac” value ([1]; day 5 versus day 1, five days of continuous dosing with AZA) was about 1, the Cmax [1, 5] was 158 ng/mL and the half-life [1, 5] was 7.8 h. It also gave a Tmax [1, 5] of 1.06 h, a Cmax [1, 6] of 165 ng/mL and a half-life [1, 6] of 7.98 h. The Tmax [1, 6] was 0.99 h, the Cmax [1, 7] was 299 ng/mL and the half-life [1, 7] was 7.39 h. It also gave a Tmax [1, 7] of 0.98 h, a Cmax [1, 8] of 155 ng/mL and a half-life [1, 8] of 7.45 h. The Tmax [1, 8] was 1.01 h, the Cmax [1, 9] was 164 ng/mL and the half-life [1, 9] was 8.07 h. For the same compound, the Tmax [1, 9] was 1 h, the Cmax [1, 10] was 152 ng/mL and the half-life [1, 10] was 7.3 h. For the same compound, the Tmax [1, 10] was 1 h, the Cmax [1, 11] was 148 ng/mL and the half-life [1, 11] was 7.89 h. For the same compound, the Tmax [1, 11] was 0.98 h, the AUC24 ([1]; MTD expansion, IV AZA cohort (N = 26), cycle 1, day 1) was 861 ng·h/mL and the AUC24 ([1]; MTD expansion, IV AZA cohort (N = 26), cycle 1, day 5) was 921 ng·h/mL. The AUC48 ([1]; MTD expansion, IV AZA cohort, N = 12, cycle 1, day 1) was 976 ng·h/mL, the AUC48 ([1]; MTD expansion, IV AZA cohort, N = 13, cycle 1, day 5) was 1100 ng·h/mL and the AUC24 ([1]; MTD expansion, SC AZA cohort (N = 28), cycle 1, day 1) was 890 ng·h/mL. It also gave an AUC24 ([1]; MTD expansion, SC AZA cohort (N = 28), cycle 1, day 5) of 926 ng·h/mL, an AUC48 ([1]; MTD expansion, SC AZA cohort, N = 11, cycle 1, day 1) of 1000 ng·h/mL and an AUC48 ([1]; MTD expansion, SC AZA cohort, N = 18, cycle 1, day 5) of 1100 ng·h/mL. The AUC24 [1, 12] was 990 ng·h/mL, the AUC48 [1, 12] was 1110 ng·h/mL and the AUC24 [1, 13] was 986 ng·h/mL. It also gave an AUC48 [1, 13] of 1090 ng·h/mL, an AUC24 [1, 14] of 1640 ng·h/mL and an AUC48 [1, 14] of 1770 ng·h/mL. For the same compound, the “PEV PK in the presence of AZA compared with historical single-agent data” value ([1]; systemic exposure) was “not altered”, the “DLTs at starting dose” value (PEV 20 mg/m^2 (n=6) with AZA, dose escalation) was “absence of DLTs” and the “final posterior estimate of probability of toxicity” value (PEV 20 mg/m^2, CRM model) was 24%. The “DLTs in the MTD expansion cohort” value (PEV 20 mg/m^2 with AZA (n=55), grade ≥3 transaminase elevation) was “two additional patients experienced DLTs”, the “patients who experienced a DLT” value (PEV 30 mg/m^2 dose level (n=3) with AZA, grade 2 bilirubin elevation, grade 4 AST elevation) was “two of the three” and the “MTD for PEV” value (combined with AZA in standard doses, IV days 1, 3, 5 of 28-day cycles) was 20 mg/m^2. The “Overall response rate (ORR)” value ([2]; schedule A, patients treated at or below the MTD (4/23)) was 17%, the “Overall response rate (ORR)” value ([2]; schedule B, patients treated at or below the MTD (2/19)) was 10% and the “DNA damage and cell death” value (AML cells; PEV combined with AZA compared with either agent alone, immunoblotting and flow cytometry) was “significantly increased DNA damage and cell death”. For the same compound, the “combination effect on viability” value (AML cells; PEV with AZA) was “synergistically lethal”, the “combination effect on viability” value (AML cells; PEV with decitabine) was “synergistically lethal” and the “maximum tolerated dose (MTD)” value ([3]; schedule A: 1-hour IV infusion days 1, 3, 5 every 21 days) was 59 mg/m^2. The dose-limiting toxicity ([3]; schedule A) was “elevation of alanine aminotransferase (ALT)/aspartate aminotransferase (AST)”, the “maximum tolerated dose (MTD)” value ([3]; schedule B: days 1, 4, 8, 11 every 21 days) was 83 mg/m^2 and the dose-limiting toxicity ([3]; schedule B) was “Multi-organ failure (MOF)”.

For `Nc1ncn([C@@H]2O[C@H](CO)[C@@H](O)[C@H]2O)c(=O)n1` [AZA, azacitidine], the 1-year survival [4, 15] is given as 46.5%, the “median OS” value [4, 15] is given as 10.4 months and the response rates [4, 15] is given as 27.8%. For the same compound, the “composite CR/PR rate” value ([4]; patients randomized to AZA alone, large randomized French study (ref 6)) was 29% and the “median OS” value (patients with AML) was about 10 months.
